Patent publication US20100092499A1, “Alpha Thymosin Peptides as Cancer Vaccine Adjuvants” (SCICLONE PHARMACEUTICALS, INC., priority 2004, published 2010)

Columns and labels:
[1] = in vivo; cited from earlier work
[2] = system: patient tumor cells; assay: Lymphocyte Proliferation Assay (LPI); type: cell-based, human; conditions: five patients with LPI lower than 20 U after second DC immunization; thymalfasin 1.6 mg twice a week for 6 months plus 4 additional DC vaccine courses
Protocol: (§1) After the second vaccination course, the cellular immunization were measured, if this is >=20 ULPI (Linfocitic Proliferative Index) continued with the vaccination.
The patient immune response was measured using a well known in-vitro test named Lymphocyte Proliferation Assay. Briefly, mononuclear cells from the patient were purified and mixed with a suspension of the patient tumor cells at ratio 10:1 (3000 Lympho-monocytes vs 300 tumor cells). The mix cell suspension was seeded in a multi well plate and incubated at 37° C. After 96 hr the cells were harvested and counted by an automatic haemocytometer.

[3] = system: thymocytes; conditions: in vitro, dose-dependent; most pronounced on CD4CD8 double positive immature T cells; cited from earlier work
[4] = system: IFNγ, IL-2, IL-3, IL-2 receptor; conditions: following activation by mitogens or antigens; cited from earlier work
[5] = system: human CD34 stem cells; conditions: added to human CD34 stem cells in culture; cited from earlier work
[6] = system: advanced breast cancer; assay: Clinical study of dendritic cell vaccine with or without thymalfasin in advanced breast cancer patients; type: in vivo, human; conditions: for Patient Survival: 12 months; for Patient Survival / Patients with Tumor Reduction >50%: Group 3 non responders (LPI <20 U), 6 dendritic cell immunizations plus thymalfasin 1.6 mg twice a week, n=5; for Patients with Tumor Reduction >50%: Month 6
Protocol: Finally, the patients were immunized with the activated B cells hybrid itself, or a B cell hybrid cocultured with the patients' Dendritic Cells. This immunization was applied into a healthy lymph node once every three weeks. At the same time, the patients received 1.6 mg thymalfasin subcutaneously in the evenings (within between 7:00 pm and 9:00 pm) every 3 days during the time of immunization and for the following six months after the vaccination protocol was completed. This vaccination plan may, for example, involve from 4 to 10 doses, although these numbers are not exclusive.
Eighteen patients with advanced breast cancer resistant to chemo, radio and hormonotherapy were treated.
All the patients were female with Breast Cancer class 4 (with metastases).
The age rank was between 39 to 71 years.
The patients were treated with dendritic cell vaccine (according protocol: Annals of Oncology 2004-Vol 15. Supp. 3 Abs: iii40-Dendritic Cell Vaccine for Metastases Breast Cancer).
as §1
If the response was <20 ULPI, the patients were divided in 2 groups (randomized) of 5 and 7 patients group. The 5 patients group received Dendritic Cells
Vaccine plus thymalfasin (1.6 mg/tw during 6 months).
The clinical response and the survival data originated on total 18 metastatic breast patients treated were collected and, in order to perform a case serial statistic analysis we divided the total population in three different groups.
In Group 3 (n=5), patients received 6 dendritic cell immunizations with an LPI <20 U (non immune response) after the second vaccine and they received thymalfasin (1.6 mg/twice a week).

Q: With thymosin alpha 1 [thymalfasin] as the substance, how does the “safety / side effects” value [1] read?
A: safe drug and its potential side effects are significantly low

Q: What about the “Lymphocyte Proliferation Index (LPI)” value [2] of the same substance?
A: able to improve the LPI

Q: And the “dexamethasone-induced apoptosis in thymocytes” value [3]?
A: antagonizes

Q: What about the “production of IFNγ, IL-2, IL-3 and expression of the IL-2 receptor” value [4] of the same substance?
A: can increase production

Q: What about the “thymopoiesis (number of total CD3 T cells, synthesis of IL-7)” value [5] of the same substance?
A: increased thymopoiesis

Q: And the “Patient Survival” value [6]?
A: 80%

Q: What about the “Patient Survival” value ([6]; listed as THYMALFASIN) of the same substance?
A: 80%

Q: And the “Patients with Tumor Reduction >50%” value [6]?
A: 80%

Q: And the “Patients with Tumor Reduction >50%” value ([6]; listed as THYMALFASIN)?
A: 80%

Q: What about the “Patient survival compared with immune responders and non immune responders who did not receive thymalfasin” value ([6]; advanced breast cancer patients, dendritic cell immunization) of the same substance?
A: higher

Q: What about the effective tumor response ([6]; five patients with LPI lower than 20 U, thymalfasin 1.6 mg twice a week for 6 months plus 4 additional DC vaccine courses) of the same substance?
A: majority of the treated patients showed an effective tumor response
